Literature values as cited in patent US6642378B1, “Process for the synthesis of beta-lactam derivatives” (Antibioticos S.p.A., priority 1999, dated 2003).
Read-outs that look alike come from different tables or passages of the source.

Assays:
[1] = data from MSDS (Material Safety Data Sheet)—OHS
[2] = oral, data from MSDS (Material Safety Data Sheet)—OHS

CC(C)=O [Acetone]
oral DL50 rat (rat; [2]): 5800 mg/kg | Flash point [1]: −18.0 °C

COC(C)=O [Methyl acetate]
oral DL50 rat (rat; in vivo, po): 5480 mg/kg | Flash point [1]: −10.0 °C

CCOC(=O)OCC [Diethylcarbonate]
oral DL50 rat (rat; in vivo, po): 15000 mg/kg | Flash point [1]: 33.0 °C

CCOC(C)=O [Ethyl acetate]
oral DL50 rat (rat; [2]): 5620 mg/kg | Flash point [1]: −4.0 °C

COC(=O)OC [Dimethylcarbonate]
oral DL50 rat (rat; in vivo, po): 13000 mg/kg | Flash point [1]: 21.7 °C

C1CCOC1 [Tetrahydrofuran]
oral DL50 rat (rat; [2]): 2816 mg/kg | Flash point [1]: −17.2 °C
